In brackets after ≈: the same amount, converted by molar mass.

These results are taken from PubChem BioAssay AID1996.

The conditions of the data set: buffer; pH 7.4; 200.0 µM.
As usually defined, the solubility (kinetic) is solubility judged after dilution from a stock solution rather than from solid. For `COC(=O)c1ccc(S(=O)(=O)N2CCN(CCO)CC2)n1C`, the solubility (kinetic) came to 45.6 µg/mL (≈ 138 µM).
The value for `S=C(Nc1ccccc1)Nc1ccc(Cl)cn1` was 2.1 µg/mL (≈ 7.96 µM); that for `O=C(Nc1cc(Cl)ccc1-n1cncn1)C1CC1` was greater than 39.4 µg/mL; that for `O=C(NC1=NCCS1)c1ccccc1F` was 33.4 µg/mL (≈ 149 µM).
Compound `O=C(NC1CCCc2ccccc21)c1ccc([N+](=O)[O-])cc1` (stereo not drawn) yielded a solubility (kinetic) of 3.2 µg/mL (≈ 10.8 µM).
The same measure for `COC(=O)C1=C(C)NC(C)=C(C(=O)OC)C1c1ccc(C)o1`: 13 µg/mL (≈ 42.6 µM).
The same measure for `O=C(CCc1ccccc1)NC(=S)Nc1ccc2c(c1)C(=O)OC2`: less than 0.4 µg/mL; for `CC(NC(=S)NC1CCCCC1)c1ccccc1` (stereo not drawn): 36.1 µg/mL (≈ 138 µM); for `CCN(CC(=O)Nc1ccc(OC)cc1)C(=O)c1ccc2ccccc2c1`: 43.9 µg/mL (≈ 121 µM).
The value for `O=S(=O)(NCc1ccc2c(c1)OCO2)c1cccc(F)c1` was greater than 46.4 µg/mL.
`Cc1ccc(C(=O)NCCCNC(=O)c2ccccc2C)cn1` came in with a solubility (kinetic) greater than 46.7 µg/mL.
The value for `FC(F)(F)C1=Nc2cccc3cccc(c23)N1` was 13.5 µg/mL (≈ 57.2 µM).
`NC(=O)c1ccc(NC(=O)Cc2cccs2)cc1` gave a kinetic solubility of 32.9 µg/mL (≈ 126 µM). This solubility kinetic is about 2.4-fold higher than that of the compound before.
The same measure for `COc1ccccc1NC(=O)CCCCC(=O)Nc1ccccc1OC`: 41.8 µg/mL (≈ 117 µM).
For the compound `O=C(CN1CCCCC1)Nc1ccc(C(F)(F)F)cc1Cl`, the kinetic solubility worked out at 2.5 µg/mL (≈ 7.79 µM). This solubility kinetic lies about 17-fold lower than the previous one.
The value for `CC(CCc1ccccc1)NC(=O)COC(=O)c1ccccc1O` (stereo not drawn) was 1.8 µg/mL (≈ 5.5 µM); that for `O=C(COC(=O)c1ccccc1)NC1CCCCCC1` was 39.7 µg/mL (≈ 144 µM); that for `Cc1cc(C)cc(NC(=O)CN2CCN(C(=O)c3cccs3)CC2)c1` was greater than 53.6 µg/mL.
The same measure for `O=C(Nc1ncccc1O)c1ccc(Oc2ccccc2)cc1`: greater than 45.9 µg/mL; for `O=C(Cc1ccc(Br)cc1)NCCN1CCOCC1`: greater than 49.1 µg/mL; for `CCN(CC)CC(O)CN1c2ccccc2Sc2ccccc21` (stereo not drawn): 44.4 µg/mL (≈ 135 µM).
The same measure for `Cc1ccc2[nH]c3ccccc3c(=O)c2c1`: 5.8 µg/mL (≈ 27.7 µM); for `Cl.NC(Cc1nc2ccccc2[nH]1)c1ccc(Cl)cc1` (stereo not drawn): 37.7 µg/mL; for `Cc1ccccc1C(=O)NC1CCN(CC(=O)N2CCCCC2C)CC1` (stereo not drawn): greater than 53.6 µg/mL.
The compound `CC(C)(C)C(=O)N(Cc1ccccc1)c1ccccn1` displayed a kinetic solubility of 40.2 µg/mL (≈ 150 µM).
For `Cn1c(=O)n(CCc2ccccc2)c2ccccc21`, the solubility (kinetic) came out at 29.2 µg/mL (≈ 116 µM). The solubility kinetic values of the last two compounds are within 1.5-fold of each other.
In turn, `OC(CN1CCN(c2ccccc2Cl)CC1)c1ccccc1` (stereo not drawn) registered a kinetic solubility of 41.4 µg/mL (≈ 131 µM).
The same measure for `Cc1ccc(C)c(NC(=O)CCN2CCCCC2)c1`: greater than 39.1 µg/mL; for `O=C(CCC(=O)c1ccc(Cl)s1)Nc1ncccc1O`: greater than 46.6 µg/mL.
The compound `CCCc1ccc(S(=O)(=O)NCC2CCCN2CC)cc1` (stereo not drawn) yielded a solubility (kinetic) of 31 µg/mL (≈ 99.9 µM).
The value for `S=C(NCCc1ccccc1)NCCc1cnc[nH]1` was greater than 41.2 µg/mL.
The same measure for `O=C(COc1ncnc2ccccc12)NCCc1ccc(F)cc1`: 41.9 µg/mL (≈ 129 µM); for `CC(=O)N1CCN(C2=NC(=O)/C(=C\c3cccs3)S2)CC1`: 38.7 µg/mL (≈ 120 µM); for `O=C(CN1C(=O)S/C(=C/c2ccncc2)C1=O)Nc1ccccc1`: 5.5 µg/mL (≈ 16.2 µM).
The value for `CCOc1ccccc1NCc1cc(=O)oc2cc(C)ccc12` was 6.2 µg/mL (≈ 20 µM); that for `O=S(=O)(NC1CCCCC1N1CCCCC1)c1ccccc1` (stereo not drawn) was greater than 48.4 µg/mL; that for `CCOc1cccnc1Sc1ccccc1` was 27.7 µg/mL (≈ 120 µM).
For `CCC(=NCCc1ccccc1)c1c(O)[nH]c(=O)[nH]c1=O`, the kinetic solubility was greater than 43.1 µg/mL.
The same measure for `O=C(O)c1ccc(S(=O)(=O)NCc2cccnc2)cc1`: greater than 43.8 µg/mL.
The same measure for `CCc1c(C)nc(N2CCN(c3ccccc3)CC2)[nH]c1=O`: 8.8 µg/mL (≈ 29.5 µM); for `Cc1ccc(S(=O)(=O)Nc2ncccn2)cc1`: greater than 37.4 µg/mL; for `Cc1ccc(NC(=S)N(Cc2ccccc2)C(C)C)cc1`: 7.6 µg/mL (≈ 25.5 µM).
In the case of `Cc1ccc2[nH]c(C(=O)N3CCC(C(N)=O)CC3)cc2c1`, the solubility (kinetic) is greater than 42.8 µg/mL.
The value for `O=C(CN(Cc1ccco1)C(=O)c1ccc(F)cc1)Nc1ccccc1Br` was greater than 64.7 µg/mL.
The value for `Cc1ccc(C)c(OC(=O)c2cccnc2Cl)c1C` was 14.8 µg/mL (≈ 53.7 µM).
With `Cc1ccc2c(C(=O)CN3CCCCC3)c(C)[nH]c2c1`, the solubility (kinetic) is greater than 40.6 µg/mL.
The same measure for `Cc1ccc(CN(C)Cc2cc(=O)oc3cc(C)c(Cl)cc23)cc1`: less than 0.7 µg/mL.
Compound `COCCn1c(SCC(=O)NCCCN2CCCC2=O)nc2ccccc2c1=O` gave a kinetic solubility greater than 62.8 µg/mL.
The value for `O=C(CSc1nncs1)NC(=O)NC1CCCC1` was greater than 43 µg/mL; that for `Nc1ccccc1Nc1nc2ccccc2[nH]1` was greater than 33.6 µg/mL.
The compound `Cc1ccccc1N1CC(C(=O)NC2CCCC2)CC1=O` (stereo not drawn) displayed a solubility (kinetic) greater than 43 µg/mL.
As to `O=C(Nc1ccc2ccccc2n1)Nc1cccs1`, the solubility (kinetic) was less than 0.2 µg/mL.
For `Cc1ccc(Cn2c(=O)oc3ccccc32)cc1`, the kinetic solubility was determined as 1 µg/mL (≈ 4.18 µM).
